Data on 14 compounds can be found in patent publication US11332459B2 (TEIJIN PHARMA LIMITED, priority 2017, dated 2022).

This assay addresses T1, human TRPC6 (Homo sapiens, UniProt Q9Y210).
T1 construct: expressed in transfected cells
T1 sequence (Q9Y210 1-931): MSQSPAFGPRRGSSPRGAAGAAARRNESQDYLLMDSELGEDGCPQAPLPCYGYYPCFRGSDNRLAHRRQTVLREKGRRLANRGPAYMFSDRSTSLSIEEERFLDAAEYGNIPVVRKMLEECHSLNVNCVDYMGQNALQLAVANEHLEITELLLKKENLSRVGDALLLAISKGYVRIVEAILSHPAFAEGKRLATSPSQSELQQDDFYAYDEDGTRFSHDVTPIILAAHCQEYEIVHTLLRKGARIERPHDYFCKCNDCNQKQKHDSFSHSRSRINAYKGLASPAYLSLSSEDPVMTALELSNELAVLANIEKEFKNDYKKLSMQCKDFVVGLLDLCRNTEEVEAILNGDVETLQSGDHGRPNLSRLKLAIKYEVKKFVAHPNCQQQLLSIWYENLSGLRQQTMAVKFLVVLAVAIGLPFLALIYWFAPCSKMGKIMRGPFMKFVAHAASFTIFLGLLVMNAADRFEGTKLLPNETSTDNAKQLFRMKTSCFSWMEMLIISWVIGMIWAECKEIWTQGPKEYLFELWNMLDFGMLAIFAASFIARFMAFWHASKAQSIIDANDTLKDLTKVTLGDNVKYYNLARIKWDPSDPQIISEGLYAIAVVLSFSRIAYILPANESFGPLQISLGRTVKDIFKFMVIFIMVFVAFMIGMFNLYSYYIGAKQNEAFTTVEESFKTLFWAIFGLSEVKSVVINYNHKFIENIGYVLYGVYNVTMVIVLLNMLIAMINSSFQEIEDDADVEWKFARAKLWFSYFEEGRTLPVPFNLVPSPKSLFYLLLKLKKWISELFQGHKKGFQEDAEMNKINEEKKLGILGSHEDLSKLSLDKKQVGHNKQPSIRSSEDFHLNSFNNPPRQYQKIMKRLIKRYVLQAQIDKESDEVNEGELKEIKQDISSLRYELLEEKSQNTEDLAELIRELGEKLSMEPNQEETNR
Kind of assay: TRPC6 calcium flux assay (FLIPR, OAG-stimulated calcium influx). Type of assay: cell-based. The conditions noted are these: HEK293 cells stably transfected with human TRPC6, read-out: hTRPC6 Potency. In outline: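 HEK293 cells stably expressing human TRPC6, loaded with calcium dye 90–120 min at RT, then given compound for 25 min before OAG (50 uM final, 0.5% DMSO) in HEPES buffer pH 7.2 with 2 mM CaCl2. Background-subtracted FLIPR peak over 180 s normalized to OAG vs buffer; IC50 from dose plot.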
A general note: A change in cytosolic calcium serves as a functional read-out for many receptors and channels.
On to `COc1cc(Cl)ccc1Cn1c(N2CC[C@@H](F)[C@H](N)C2)nc2cc(F)c(F)cc21` [Example 350, (3R,4R)-1-(1-(4-chloro-2-methoxybenzyl)-5,6-difluoro-1H-benzimidazol-2-yl)-4-fluoro-3-piperidinamine], for which the IC50 worked out at 351 nM. The figure for `N[C@@H]1CN(c2nc3cc(F)c(F)cc3n2Cc2ccc(F)cc2F)CC[C@H]1F` [Example 351, (3R,4R)-1-(1-(2,4-difluorobenzyl)-5,6-difluoro-1H-benzimidazol-2-yl)-4-fluoro-3-piperidinamine] is 10.3 nM; for `N[C@@H]1CN(c2nc3cc(F)c(F)cc3n2Cc2ccccc2C(F)(F)F)CC[C@H]1F` [Example 352, (3R,4R)-1-(5,6-difluoro-1-(2-(trifluoromethyl)benzyl)-1H-benzimidazol-2-yl)-4-fluoro-3-piperidinamine] it is 328 nM. For `N#Cc1ccccc1Cn1c(N2CC[C@@H](F)[C@H](N)C2)nc2cc(F)c(F)cc21` [Example 353, 2-((2-((3R,4R)-3-amino-4-fluoro-1-piperidinyl)-5,6-difluoro-1H-benzimidazol-1-yl)methyl)benzonitrile], the IC50 worked out at 30.8 nM. As to `N[C@@H]1CN(c2nc3cc(F)c(F)cc3n2Cc2ccccc2Cl)CC[C@H]1F` [Example 354, (3R,4R)-1-(1-(2-chlorobenzyl)-5,6-difluoro-1H-benzimidazol-2-yl)-4-fluoro-3-piperidinamine], the IC50 was found to be 133 nM.

Consider `N[C@@H]1CN(c2nc3cc(F)c(F)cc3n2Cc2ccc(F)cc2Cl)CC[C@H]1F` [Example 355, (3R,4R)-1-(1-(2-chloro-4-fluorobenzyl)-5,6-difluoro-1H-benzimidazol-2-yl)-4-fluoro-3-piperidinamine], for which the IC50 turned out to be 37 nM. The value for `N[C@@H]1CN(c2nc3cc(F)c(F)cc3n2Cc2ccc(F)cc2C(F)(F)F)CC[C@H]1F` [Example 356, (3R,4R)-1-(5,6-difluoro-1-(4-fluoro-2-(trifluoromethyl)benzyl)-1H-benzimidazol-2-yl)-4-fluoro-3-piperidinamine] was 239 nM; that for `N[C@@H]1CN(c2nc3cc(F)c(F)cc3n2Cc2ccc(F)c(F)c2)CC[C@H]1F` [Example 357, (3R,4R)-1-(1-(3,4-difluorobenzyl)-5,6-difluoro-1H-benzimidazol-2-yl)-4-fluoro-3-piperidinamine] was 24.5 nM; that for `N[C@@H]1CN(c2nc3cc(F)c(F)cc3n2Cc2ccc(Cl)cc2F)CC[C@H]1F` [Example 358, (3R,4R)-1-(1-(4-chloro-2-fluorobenzyl)-5,6-difluoro-1H-benzimidazol-2-yl)-4-fluoro-3-piperidinamine] was 6.47 nM. The value for `N[C@@H]1CN(c2nc3cc(F)c(F)cc3n2Cc2ccc(Cl)c(Cl)c2)CC[C@H]1F` [Example 359, (3R,4R)-1-(1-(3,4-dichlorobenzyl)-5,6-difluoro-1H-benzimidazol-2-yl)-4-fluoro-3-piperidinamine] was 238 nM.

Consider `N[C@@H]1CN(c2nc3cc(F)c(F)cc3n2Cc2ccc(Cl)c(F)c2)CC[C@H]1F` [Example 360, (3R,4R)-1-(1-(4-chloro-3-fluorobenzyl)-5,6-difluoro-1H-benzimidazol-2-yl)-4-fluoro-3-piperidinamine], for which the IC50 amounted to 42.9 nM. For the compound `N[C@@H]1CN(c2nc3cc(F)c(F)cc3n2Cc2ccc(C(F)(F)F)cc2)CC[C@H]1F` [Example 361, (3R,4R)-1-(5,6-difluoro-1-(4-(trifluoromethyl)benzyl)-1H-benzimidazol-2-yl)-4-fluoro-3-piperidinamine], the IC50 came to 66.8 nM. The value for `N[C@@H]1CN(c2nc3cc(F)c(F)cc3n2Cc2ccc(OC(F)(F)F)cc2)CC[C@H]1F` [Example 362, (3R,4R)-1-(5,6-difluoro-1-(4-(trifluoromethoxy)benzyl)-1H-benzimidazol-2-yl)-4-fluoro-3-piperidinamine] was 256 nM. The value for `N[C@@H]1CN(c2nc3cc(F)c(F)cc3n2Cc2ccc(C(F)F)cc2)CC[C@H]1F` [Example 363, (3R,4R)-1-(1-(4-(difluoromethyl)benzyl)-5,6-difluoro-1H-benzimidazol-2-yl)-4-fluoro-3-piperidinamine] was 31.3 nM.
